Measured values reported in ChEMBL document CHEMBL5247588, “Design and characterization of PROTAC degraders specific to protein N-terminal methyltransferase 1” (Eur J Med Chem, 2022).
Calls of active or inactive are those of the source. The calls are words filed in the database; no cut-off is given here.

Tests used:
[1] = system: HCT-116; experiment: Antiproliferative activity against human HCT-116 cells assessed as inhibition of cell proliferation at 1 to 64 uM incubated for 72 hrs by fluorescence based microplate reader analysis relative to control; format: functional; settings: dose 1-64 µM
[2] = system: HCT-116; experiment: Antiproliferative activity against human HCT-116 cells cultured in PG-S assessed as decrease in cell number at 64 uM measured after 3 days by AO/PI staining based cell counter analysis relative to control; format: functional; design: scale not given: the % may be the effect or the level left; settings: time 3 day
[3] = system: HT-29; experiment: Cytotoxicity against human HT-29 cells assessed as reduction in cell viability at 1 to 64 uM measured after 24 hrs by WST-8 assay; format: toxicity, cell-based; settings: ht-29, 24 h, dose 1-64 µM
[4] = system: HCT-116; experiment: Antiproliferative activity against human HCT-116 cells assessed as reduction in tumor spheroid growth at 64 uM measured after 12 days by imaging analysis relative to control; format: functional; design: scale not given: the % may be the effect or the level left; settings: time 12 day
[5] = Upregulation of CALR in human HCT-116 cells assessed as fold change at 25 uM incubated for 24 hrs by Western blot analysis relative to control; format: functional
[6] = target: T1, N-terminal Xaa-Pro-Lys N-methyltransferase 1 (Homo sapiens) (UniProt Q9BV86); experiment: Potency index, ratio of DC541 IC50 to test compound IC50 for inhibition of NTMT1 (unknown origin) using SPKRIAKRRS(CONH2) peptide as substrate assessed as SAH production incubated for 10 mins in the presence of SAM by HPLC analysis
T1 sequence (whole entry): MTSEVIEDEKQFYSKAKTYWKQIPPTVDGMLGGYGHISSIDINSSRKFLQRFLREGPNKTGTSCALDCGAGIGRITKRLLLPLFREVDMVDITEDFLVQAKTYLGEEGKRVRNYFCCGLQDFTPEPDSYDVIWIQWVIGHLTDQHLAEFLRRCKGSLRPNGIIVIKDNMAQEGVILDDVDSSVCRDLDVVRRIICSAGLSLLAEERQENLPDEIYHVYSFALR

[7] = system: HCT-116; experiment: Antiproliferative activity against NTMT1 knockout human HCT-116 cells at 1 to 64 uM incubated for 72 hrs by fluorescence based microplate reader analysis; format: functional, cell-based; settings: dose 1-64 µM
[8] = system: HCT-116; experiment: Antiproliferative activity against human HCT-116 cells assessed as reduction in cell proliferation incubated for 72 hrs by fluorescence based microplate reader analysis; format: functional; settings: dose 1-64 µM
[9] = target: T2, von Hippel-Lindau disease tumor suppressor/N-terminal Xaa-Pro-Lys N-methyltransferase 1 (Homo sapiens) (UniProt P40337+Q9BV86); experiment: PROTAC activity at VHL/NTMT1 in human HT-29 cells assessed as reduction in NTMT1 protein level at 50 uM incubated for 24 hrs by Western blot analysis; format: cell-based
[10] = target: T3, N-terminal Xaa-Pro-Lys N-methyltransferase 1 (Homo sapiens, UniProt Q9BV86); experiment: Inhibition of NTMT1 (unknown origin) using SPKRIAKRRS(CONH2) peptide as substrate assessed as SAH production incubated for 10 mins in the presence of SAM by HPLC analysis
T3 sequence (Q9BV86 whole entry): T1 sequence (whole entry)

[11] = target: T2, von Hippel-Lindau disease tumor suppressor/N-terminal Xaa-Pro-Lys N-methyltransferase 1 (Homo sapiens); experiment: PROTAC activity at VHL/NTMT1 in human HCT-116 cells assessed as reduction in NTMT1 protein level at 50 uM incubated for 24 hrs by Western blot analysis; format: cell-based
[12] = system: HCT-116; experiment: Cytotoxicity against human HCT-116 cells assessed as reduction in cell viability at 1 to 64 uM incubated for 24 hrs by WST-8 assay; format: toxicity, cell-based; settings: hct-116, 24 h, dose 1-64 µM
[13] = target: T2, von Hippel-Lindau disease tumor suppressor/N-terminal Xaa-Pro-Lys N-methyltransferase 1 (Homo sapiens); experiment: PROTAC activity at VHL/NTMT1 in human HCT-116 cells assessed as reduction in NTMT1 protein level incubated for 24 hrs by Western blot analysis; format: cell-based
[14] = target: T2, von Hippel-Lindau disease tumor suppressor/N-terminal Xaa-Pro-Lys N-methyltransferase 1 (Homo sapiens); experiment: PROTAC activity at VHL/NTMT1 in human HT-29 cells assessed as reduction in NTMT1 protein level incubated for 24 hrs by Western blot analysis; format: cell-based
[15] = target: T4, von Hippel-Lindau disease tumor suppressor/N-terminal Xaa-Pro-Lys N-methyltransferase 2 (Homo sapiens) (UniProt P40337+Q5VVY1); experiment: PROTAC activity at VHL/NTMT2 in human HCT-116 cells assessed as reduction in NTMT2 protein level at 5 to 50 uM incubated for 24 hrs by Western blot analysis; format: cell-based; settings: dose 5-50 µM
[16] = target: T2, von Hippel-Lindau disease tumor suppressor/N-terminal Xaa-Pro-Lys N-methyltransferase 1 (Homo sapiens); experiment: PROTAC activity at VHL/NTMT1 in human HT-29 cells assessed as reduction in NTMT1 protein level at 50 uM measured upto 6 hrs by Western blot analysis; format: cell-based
[17] = target: T4, von Hippel-Lindau disease tumor suppressor/N-terminal Xaa-Pro-Lys N-methyltransferase 2 (Homo sapiens); experiment: PROTAC activity at VHL/NTMT2 in human HT-29 cells assessed as reduction in NTMT2 protein level at 5 to 50 uM incubated for 24 hrs by Western blot analysis; format: cell-based; settings: dose 5-50 µM
[18] = system: HCT-116; experiment: Antiproliferative activity against human HCT-116 cells cultured in PG-S assessed as decrease in cell number measured after 3 days by AO/PI staining based cell counter analysis; format: functional; settings: time 3.0 day
[19] = system: HCT-116; experiment: Induction of cell cycle arrest in human HCT-116 cells assessed as accumulation of cells at G0/G1 phase incubated for 3 days by PI staining based flow cytometric analysis; format: functional; settings: time 3.0 day
[20] = system: HCT-116; experiment: Antiproliferative activity against human HCT-116 cells cultured in PG-S assessed as viable cells upto 64 uM measured after 3 days by AO/PI staining based cell counter analysis relative to control; format: functional; settings: time 3 day, up to 64 µM
[21] = target: T2, von Hippel-Lindau disease tumor suppressor/N-terminal Xaa-Pro-Lys N-methyltransferase 1 (Homo sapiens); experiment: PROTAC activity at VHL/NTMT1 in human HT-29 cells assessed as reduction in NTMT1 protein level by measuring maximal efficacy at 0.1 to 50 uM incubated for 24 hrs by Western blot analysis relative to control; format: cell-based; settings: dose 0.1-50 µM
[22] = target: T2, von Hippel-Lindau disease tumor suppressor/N-terminal Xaa-Pro-Lys N-methyltransferase 1 (Homo sapiens); experiment: PROTAC activity at VHL/NTMT1 in human HT-29 cells assessed as reduction in NTMT1 protein level at 50 uM preincubated with compound for 24 hrs followed by compound washout and measured after 20 hrs by Western blot analysis; format: cell-based
[23] = target: T2, von Hippel-Lindau disease tumor suppressor/N-terminal Xaa-Pro-Lys N-methyltransferase 1 (Homo sapiens); experiment: PROTAC activity at VHL/NTMT1 in human HCT-116 cells co-expressing eGFP fusion protein assessed as reduction in NTMT1 protein level by measuring reduction in eGFP fluorescence at 100 uM incubated for 24 hrs by fluorescence microscopic analysis; format: cell-based
[24] = target: T2, von Hippel-Lindau disease tumor suppressor/N-terminal Xaa-Pro-Lys N-methyltransferase 1 (Homo sapiens); experiment: PROTAC activity at VHL/NTMT1 in human HCT-116 cells assessed as reduction in NTMT1 protein level at 50 uM preincubated with MG132 for 2 hrs followed by compound addition and measured after 24 hrs by Western blot analysis; format: cell-based
[25] = target: T2, von Hippel-Lindau disease tumor suppressor/N-terminal Xaa-Pro-Lys N-methyltransferase 1 (Homo sapiens); experiment: PROTAC activity at VHL/NTMT1 in human HCT-116 cells assessed as reduction in NTMT1 protein level by measuring maximal efficacy at 0.1 to 50 uM incubated for 24 hrs by Western blot analysis relative to control; format: cell-based; settings: dose 0.1-50 µM
[26] = system: HCT-116; experiment: Downregulation of NTMT1 in human HCT-116 cells at 25 uM incubated for 24 hrs by LC-MS based proteomic analysis; format: functional, cell-based
[27] = system: HCT-116; experiment: Induction of cell cycle arrest in human HCT-116 cells assessed as decrease in S phase cells at 64 uM incubated for 3 days by PI staining based flow cytometric analysis; format: functional; settings: time 3.0 day
[28] = target: T2, von Hippel-Lindau disease tumor suppressor/N-terminal Xaa-Pro-Lys N-methyltransferase 1 (Homo sapiens); experiment: PROTAC activity at VHL/NTMT1 in human HCT-116 cells assessed as reduction in NTMT1 protein level by measuring maximal efficacy at 50 uM measured at 3 hrs by Western blot analysis relative to control; format: cell-based
[29] = system: HCT-116; experiment: Downregulation of NTMT1 in human HCT-116 cells at 25 uM incubated for 24 hrs by Western-blot analysis; format: functional, cell-based
[30] = target: T2, von Hippel-Lindau disease tumor suppressor/N-terminal Xaa-Pro-Lys N-methyltransferase 1 (Homo sapiens); experiment: PROTAC activity at VHL/NTMT1 in human HCT-116 cells assessed as reduction in NTMT1 protein level at 50 uM preincubated with MLN4924 for 2 hrs followed by compound addition and measured after 24 hrs by Western blot analysis; format: cell-based
[31] = target: T2, von Hippel-Lindau disease tumor suppressor/N-terminal Xaa-Pro-Lys N-methyltransferase 1 (Homo sapiens); experiment: PROTAC activity at VHL/NTMT1 in human HCT-116 cells assessed as reduction in NTMT1 protein level at 50 uM preincubated with compound for 24 hrs followed by compound washout and measured after 20 hrs by Western blot analysis; format: cell-based
[32] = system: HCT-116; experiment: Induction of cell cycle arrest in human HCT-116 cells assessed as G0/G1 phase cells at 64 uM incubated for 3 days by PI staining based flow cytometric analysis (reference value: 65%); format: functional; settings: time 3 day
[33] = target: T2, von Hippel-Lindau disease tumor suppressor/N-terminal Xaa-Pro-Lys N-methyltransferase 1 (Homo sapiens); experiment: PROTAC activity at VHL/NTMT1 in human HT-29 cells assessed as reduction in NTMT1 protein level by measuring maximal efficacy at 50 uM measured after 24 hrs by Western blot analysis relative to control; format: cell-based
[34] = system: HCT-116; experiment: Upregulation of CALR in human HCT-116 cells at 25 uM incubated for 24 hrs by LC-MS based proteomic analysis; format: functional, cell-based

T2 sequence (P40337 whole entry, looked up, one chain of several): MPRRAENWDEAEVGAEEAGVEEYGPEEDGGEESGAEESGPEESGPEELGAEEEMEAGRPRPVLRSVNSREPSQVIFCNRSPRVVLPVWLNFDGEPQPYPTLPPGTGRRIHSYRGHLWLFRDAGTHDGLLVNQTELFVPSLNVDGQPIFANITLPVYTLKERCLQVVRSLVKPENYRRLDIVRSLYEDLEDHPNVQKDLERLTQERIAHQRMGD
T4 sequence (P40337 whole entry, looked up): as the sequence (P40337 whole entry, looked up, one chain of several) above
T4 sequence (Q5VVY1 whole entry, looked up): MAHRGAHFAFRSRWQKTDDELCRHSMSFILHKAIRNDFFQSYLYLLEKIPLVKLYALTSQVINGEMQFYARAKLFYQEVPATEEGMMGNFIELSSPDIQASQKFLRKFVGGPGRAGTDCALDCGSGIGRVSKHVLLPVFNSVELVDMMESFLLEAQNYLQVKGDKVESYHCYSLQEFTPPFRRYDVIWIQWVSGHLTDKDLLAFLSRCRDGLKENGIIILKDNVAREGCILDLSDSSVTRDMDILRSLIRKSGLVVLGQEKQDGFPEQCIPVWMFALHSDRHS

IC50 [10] | Activity [13] | Activity [14] | SMILES | inhibition (INH) [1] | Activity [2] | Activity [3] | Activity [4] | fold change (FC) [5] | Ratio IC50 [6] | Activity [7] | Activity [8] | Activity [11] | Activity [12] | also measured
2 µM | Dose-Dependent Effect | Dose-Dependent Effect | Cc1ncsc1-c1ccc(CNC(=O)[C@@H]2C[C@@H](O)CN2C(=O)[C@H](C(C)C)N2Cc3ccccc3C2=O)c(OCCOCCNC(=O)c2ccccc2NC(=O)[C@H](CCCCN)NC(=O)[C@@H]2CCCN2C(=O)Cc2cccc3ccccc23)c1 |  |  |  |  |  | 2 |  |  |  |  | 
2 µM | Dose-Dependent Effect | Dose-Dependent Effect | Cc1ncsc1-c1ccc(CNC(=O)[C@@H]2C[C@@H](O)CN2C(=O)[C@H](C(C)C)N2Cc3ccccc3C2=O)c(OCCOCCOCCOCCNC(=O)c2ccccc2NC(=O)[C@H](CCCCN)NC(=O)[C@@H]2CCCN2C(=O)Cc2cccc3ccccc23)c1 |  |  |  |  |  | 2 |  |  |  |  | 
9.18 µM |  |  | NCCCC[C@H](NC(=O)[C@@H]1CCCN1C(=O)Cc1cccc2ccccc12)C(=O)Nc1ccccc1C(=O)O |  |  |  |  |  |  |  |  |  |  | 

Second part, the compound before the results:

SMILES | IC50 [10] | Activity [13] | Activity [14] | inhibition (INH) [1] | Activity [2] | Activity [3] | Activity [4] | fold change (FC) [5] | Ratio IC50 [6] | Activity [7] | Activity [8] | Activity [11] | Activity [12] | also measured
Cc1ncsc1-c1ccc(CNC(=O)[C@@H]2C[C@H](O)CN2C(=O)[C@H](C(C)C)N2Cc3ccccc3C2=O)c(OCCNC(=O)c2ccccc2NC(=O)[C@H](CCCCN)NC(=O)[C@@H]2CCCN2C(=O)Cc2cccc3ccccc23)c1 | 2.42 µM |  |  | 22% | 78% | Non-Toxic | 32% | 1.1 | 2 | inactive | Active | inactive | Non-Toxic | Activity [9]: inactive
Cc1ncsc1-c1ccc(CNC(=O)[C@@H]2C[C@@H](O)CN2C(=O)[C@H](C(C)C)N2Cc3ccccc3C2=O)c(OCCNC(=O)c2ccccc2NC(=O)[C@H](CCCCN)NC(=O)[C@@H]2CCCN2C(=O)Cc2cccc3ccccc23)c1 | 1.77 µM | Dose-Dependent Effect | Dose-Dependent Effect | 47% | 68% | Non-Toxic | 62% | 1.5 | 2 | inactive | Active | Active | Non-Toxic | Activity [15]: inactive; Activity [16]: inactive; Activity [17]: inactive; Activity [18]: Dose-Dependent Effect; Activity [19]: Dose-Dependent Effect; Activity [20]: >92%; Emax [21]: > 90%; Activity [22]: inactive; Activity [23]: Active; Activity [24]: inactive; Emax [25]: > 90%; Activity [26]: Active; Activity [27]: Active; Emax [28]: > 60%; Activity [29]: Active; Activity [30]: inactive; Activity [31]: inactive; Activity [32]: 71%; Emax [33]: > 90%; Activity [34]: Active
NCCCC[C@H](NC(=O)[C@@H]1CCCN1C(=O)Cc1cccc2ccccc12)C(=O)Nc1ccccc1C(N)=O | 4.38 µM |  |  |  |  |  |  |  |  |  |  |  |  | 
